Experimental data published in the supplement of paper PMC10307832.

What was measured:
Experiment in all cases: relative viability (nuclei count vs DMSO), 5 days (fraction); higher = more cells survive
[1] = compound: C(C(=O)C(=O)O)Br [Bromopyruvate] + Nc1nc2[nH]cc(CCc3ccc(C(=O)N[C@@H](CCC(=O)O)C(=O)O)cc3)c2c(=O)[nH]1 [Pemetrexed] (partner 0.2 µM)
Summary of the method: (§1)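 Medians of duplicate plates are given as relative viability. That measure is the nuclei count in treated wells divided by the count in vehicle wells. Counts were taken on 4× images of lung cancer cell lines in 1536-well plates, 5 days after pin-tool dosing the day after seeding with one drug alone or a fixed anchor-drug dose plus five library-drug doses (not always all listed) in √10 steps.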

[2] = compound: C(C(=O)C(=O)O)Br [Bromopyruvate] + N=C(N)NC(=N)NCCc1ccccc1 [Phenformin] (partner 250 µM)
Summary of the method: as §1

[3] = compound: C(C(=O)C(=O)O)Br [Bromopyruvate] + Nc1ncn([C@H]2C[C@H](O)[C@@H](CO)O2)c(=O)n1 [Decitabine] (partner 2 µM)
Summary of the method: as §1

[4] = compound: CC(O)(CS(=O)(=O)c1ccc(F)cc1)C(=O)Nc1ccc(C#N)c(C(F)(F)F)c1 [Bicalutamide] + C[C@]1(O)C[C@@H](c2nc(-c3ccc4ccc(-c5ccccc5)nc4c3)c3c(N)nccn32)C1 [Linsitinib] (partner 1 µM)
Summary of the method: as §1

Cell Line: UMC-11
- relative viability ([1]; first compound 1 µM): 0.801
- relative viability ([1]; first compound 3.162 µM): 0.841
- relative viability ([1]; first compound 10 µM): 0.777
- relative viability ([1]; first compound 31.62 µM): 0.708
- relative viability ([1]; first compound 100 µM): 0.736
- relative viability ([2]; first compound 1 µM): 0.343
- relative viability ([2]; first compound 3.162 µM): 0.328
- relative viability ([2]; first compound 10 µM): 0.314
- relative viability ([2]; first compound 31.62 µM): 0.329
- relative viability ([2]; first compound 100 µM): 0.292
- relative viability ([3]; first compound 1 µM): 0.596
- relative viability ([3]; first compound 3.162 µM): 0.574
- relative viability ([3]; first compound 10 µM): 0.815
- relative viability ([3]; first compound 31.62 µM): 0.617
- relative viability ([3]; first compound 100 µM): 0.708
- relative viability ([4]; first compound 0.08 µM): 1.1
- relative viability ([4]; first compound 0.253 µM): 0.662
- relative viability ([4]; first compound 0.8 µM): 1.08
- relative viability ([4]; first compound 2.53 µM): 0.955
